Assay results: ChEMBL document CHEMBL1152228, “Using proton nuclear magnetic resonance to study the mode of ribonuclease A inhibition by competitive and noncompetitive inhibitors” (Bioorg Med Chem Lett, 2008)

Target: T1, Ribonuclease pancreatic (Homo sapiens, UniProt P07998)
T1 sequence (P07998 whole entry): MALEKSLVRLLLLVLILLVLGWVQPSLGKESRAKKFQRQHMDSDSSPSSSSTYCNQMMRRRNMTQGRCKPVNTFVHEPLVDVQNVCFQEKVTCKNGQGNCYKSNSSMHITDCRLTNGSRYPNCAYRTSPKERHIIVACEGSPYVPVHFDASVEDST
Experiment: Inhibition of ribonucleolytic activity of RNase A by agarose gel based assay

Row | SMILES | Ki [µM]
1 | O=C(O)C1CCN([C@H]2[C@H](O)[C@H](n3ccc(=O)[nH]c3=O)O[C@@H]2CO)CC1 | 103
2 | CCOC(=O)C1CCN([C@H]2[C@H](O)[C@H](n3ccc(=O)[nH]c3=O)O[C@@H]2CO)CC1 | 120
